Two molecules from US20210137119A1 (priority 2017, published 2021) can be followed below.

Where two headings read alike, the source gives them in different places.

In this test the test system is Fusarium graminearum in wheat. Format: in vivo.
The mark [1] stands for this setting: Trial 1, dosage mL/Ha: benzovindiflupyr 200, phenamacril 1500, combination 200 + 1500.
Where [2] appears, read: Trial 2, dosage mL/Ha: benzovindiflupyr 200, phenamacril 1500, combination 200 + 1500.
The mark [3] stands for this setting: Trial 3, dosage mL/Ha: benzovindiflupyr 200, phenamacril 1500, combination 150 + 1250.
[4] abbreviates: Trial 4, dosage mL/Ha: benzovindiflupyr 200, phenamacril 1500, combination 150 + 1250.

Turning to `CCOC(=O)C(C#N)=C(N)c1ccccc1` [Phenamacril, ethyl (2EZ)-3-amino-2-cyano-3-phenylacrylate], the “% disease control of Fusarium graminearum in wheat at 3DAA, Actual” value (“% disease control … at 3DAA, Actual” below) under setting [1] stood at 83.5% and the “% disease control … at 3DAA, Actual” value under setting [3] is given as 83.5%. Also, the “% disease control of Fusarium graminearum in wheat at 7DAA, Actual” value is, setting by setting: under setting [2], 83.5%; under setting [4], 83.5%.
For the molecule `Cn1cc(C(=O)Nc2cccc3c2[C@@H]2CC[C@H]3C2=C(Cl)Cl)c(C(F)F)n1` (racemic) [Benzovindiflupyr, N-[(1RS,4SR)-9-(dichloromethylene)-1,2,3,4-tetrahydro-1,4-methanonaphthalen-5-yl]-3-(difluoromethyl)-1-methylpyrazole-4-carboxamide], the “% disease control … at 3DAA, Actual” value turned out to be 27% under setting [1] and 27% under setting [3]. Moreover, the “% disease control of Fusarium graminearum in wheat at 7DAA, Actual” value runs as follows: under setting [2], 27%; under setting [4], 27%.
